Measurements published in ChEMBL document CHEMBL3639183, “Anellated pyridine compounds” (2013).
pKi: −log10 of the molar value.

Assays:
Format in all cases: cell-based
[1] = target: 5-hydroxytryptamine receptor 2A (Homo sapiens, UniProt P28223); assay: (§1) Radioligand Binding Assay: The ability of the compounds to bind to the 5-HT2A, D3 and D2 receptors was determined using radioligand binding to cloned receptors selectively expressed in HEK-293 EBNA cells.
[2] = target: D(2) dopamine receptor (Homo sapiens, UniProt P14416); assay: as §1
[3] = target: D(3) dopamine receptor (Homo sapiens, UniProt P35462); assay: as §1
Chain of D(3) dopamine receptor (P35462 whole entry): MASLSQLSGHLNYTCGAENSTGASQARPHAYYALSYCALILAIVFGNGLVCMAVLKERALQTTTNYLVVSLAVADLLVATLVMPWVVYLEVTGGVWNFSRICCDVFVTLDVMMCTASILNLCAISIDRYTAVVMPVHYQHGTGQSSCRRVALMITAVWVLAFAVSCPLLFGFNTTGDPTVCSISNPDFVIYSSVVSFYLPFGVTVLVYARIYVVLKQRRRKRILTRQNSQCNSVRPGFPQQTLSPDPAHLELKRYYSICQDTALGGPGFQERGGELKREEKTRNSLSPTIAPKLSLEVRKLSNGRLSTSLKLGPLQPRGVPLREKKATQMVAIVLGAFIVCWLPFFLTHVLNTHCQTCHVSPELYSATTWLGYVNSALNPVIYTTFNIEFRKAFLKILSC

Chain of 5-hydroxytryptamine receptor 2A (P28223 whole entry): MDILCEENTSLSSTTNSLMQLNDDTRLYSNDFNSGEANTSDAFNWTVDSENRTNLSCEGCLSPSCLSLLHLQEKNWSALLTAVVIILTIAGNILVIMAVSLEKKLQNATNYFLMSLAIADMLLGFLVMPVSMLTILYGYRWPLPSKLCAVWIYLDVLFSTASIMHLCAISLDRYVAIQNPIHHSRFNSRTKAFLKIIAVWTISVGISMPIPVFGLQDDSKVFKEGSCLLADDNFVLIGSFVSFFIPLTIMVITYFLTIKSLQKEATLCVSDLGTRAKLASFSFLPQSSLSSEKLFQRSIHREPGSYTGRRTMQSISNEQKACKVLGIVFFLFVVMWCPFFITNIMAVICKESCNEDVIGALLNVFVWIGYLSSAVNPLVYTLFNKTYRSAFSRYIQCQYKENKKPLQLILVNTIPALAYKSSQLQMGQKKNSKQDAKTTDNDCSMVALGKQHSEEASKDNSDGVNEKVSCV
Chain of D(2) dopamine receptor (P14416 whole entry): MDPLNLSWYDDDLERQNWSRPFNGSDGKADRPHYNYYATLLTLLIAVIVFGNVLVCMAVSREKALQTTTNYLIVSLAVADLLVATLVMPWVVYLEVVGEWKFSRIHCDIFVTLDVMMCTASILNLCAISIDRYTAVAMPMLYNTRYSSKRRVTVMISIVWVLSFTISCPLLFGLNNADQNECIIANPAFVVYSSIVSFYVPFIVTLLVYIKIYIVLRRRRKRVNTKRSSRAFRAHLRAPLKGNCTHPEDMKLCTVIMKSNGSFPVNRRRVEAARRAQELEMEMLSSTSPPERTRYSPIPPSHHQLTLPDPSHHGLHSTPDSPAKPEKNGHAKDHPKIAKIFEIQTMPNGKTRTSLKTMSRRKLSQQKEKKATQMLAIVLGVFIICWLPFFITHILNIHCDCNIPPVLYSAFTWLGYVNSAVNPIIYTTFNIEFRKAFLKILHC

With `CC(C)(O)C(=O)N[C@H]1CC[C@H](CCN2CCN(c3nccc4c3CCO4)CC2)CC1` the pKi [1] was 8.11, the pKi [2] was 5.90 and the pKi [3] was 6.71.
